For 23 compounds, IC50 results are on record in patent US9926281B2 (priority 2014, dated 2018).

Read-outs that look alike come from different tables or passages of the source. Some results are limits rather than exact numbers.

Test [1] deals with rnADAMTS-5 (1-564-6H) (Rattus norvegicus, UniProt Q6TY19). Particulars: read-out: Rat ADAMTS-5 potency IC50.
For test [2], the target named is T1, human ADAMTS-5 (Homo sapiens (Human), UniProt Q9UNA0). As to conditions: read-out: hADAMTS-5 potency IC50.
Test [3] deals with human TACE (Homo sapiens (Human), UniProt P78536). Particulars: read-out: TACE potency IC50.
For test [4], the target named is T2, human MMP13 (Homo sapiens (Human), UniProt P45452). As to conditions: read-out: hMMP-13 potency IC50.
Description: The reaction is initiated by adding to the assay plate 520 MMP-fret substrate XV (10 μL, 4 μM) in the same buffer.
The target in test [5] is T1, human ADAMTS-5. Particulars: read-out: hADAMTS-5 potency IC50. This is another data set of the same source.
Description: Finally, the fluorescence is read on the Envision (Perkin Elmer) after an incubation of 90 min at 37° C.
The target of test [6] is T2, human MMP13. Particulars: read-out: hMMP-13 potency IC50. The source holds these as a separate data set.
Description: Human MMP13 is preactivated by incubated the enzyme in the same buffer complemented with 1 mM freshly prepared p-Aminophenylmercuric acetate (AMPA) for 1 hour at 37° C.
Test [7] deals with human MMP14 (Homo sapiens (Human), UniProt P50281). Particulars: read-out: hMMP-14 potency IC50.

Chain of human TACE (P78536 whole entry, looked up, change not shown): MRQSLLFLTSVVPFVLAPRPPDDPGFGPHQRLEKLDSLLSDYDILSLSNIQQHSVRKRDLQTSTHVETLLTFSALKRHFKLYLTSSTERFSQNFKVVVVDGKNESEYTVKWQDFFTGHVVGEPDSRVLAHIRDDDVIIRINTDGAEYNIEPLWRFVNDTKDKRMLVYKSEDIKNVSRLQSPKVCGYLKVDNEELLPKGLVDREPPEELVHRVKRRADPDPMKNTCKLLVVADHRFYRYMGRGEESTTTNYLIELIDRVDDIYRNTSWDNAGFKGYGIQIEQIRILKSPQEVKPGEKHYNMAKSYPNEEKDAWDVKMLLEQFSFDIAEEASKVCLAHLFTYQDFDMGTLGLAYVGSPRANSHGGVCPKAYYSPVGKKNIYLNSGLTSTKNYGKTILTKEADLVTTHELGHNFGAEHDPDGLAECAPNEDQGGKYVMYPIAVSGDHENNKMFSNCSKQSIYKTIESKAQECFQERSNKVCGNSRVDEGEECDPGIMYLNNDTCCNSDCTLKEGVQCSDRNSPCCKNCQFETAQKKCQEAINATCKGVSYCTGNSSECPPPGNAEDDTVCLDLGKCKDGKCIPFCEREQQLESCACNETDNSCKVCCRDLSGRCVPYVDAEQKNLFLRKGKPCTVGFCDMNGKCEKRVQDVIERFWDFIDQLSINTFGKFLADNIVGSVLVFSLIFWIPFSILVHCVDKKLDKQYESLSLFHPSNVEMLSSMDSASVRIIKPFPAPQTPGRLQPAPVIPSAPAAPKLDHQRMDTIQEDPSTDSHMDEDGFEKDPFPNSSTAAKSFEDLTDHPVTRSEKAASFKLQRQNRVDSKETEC
T1 sequence (Q9UNA0 262-930): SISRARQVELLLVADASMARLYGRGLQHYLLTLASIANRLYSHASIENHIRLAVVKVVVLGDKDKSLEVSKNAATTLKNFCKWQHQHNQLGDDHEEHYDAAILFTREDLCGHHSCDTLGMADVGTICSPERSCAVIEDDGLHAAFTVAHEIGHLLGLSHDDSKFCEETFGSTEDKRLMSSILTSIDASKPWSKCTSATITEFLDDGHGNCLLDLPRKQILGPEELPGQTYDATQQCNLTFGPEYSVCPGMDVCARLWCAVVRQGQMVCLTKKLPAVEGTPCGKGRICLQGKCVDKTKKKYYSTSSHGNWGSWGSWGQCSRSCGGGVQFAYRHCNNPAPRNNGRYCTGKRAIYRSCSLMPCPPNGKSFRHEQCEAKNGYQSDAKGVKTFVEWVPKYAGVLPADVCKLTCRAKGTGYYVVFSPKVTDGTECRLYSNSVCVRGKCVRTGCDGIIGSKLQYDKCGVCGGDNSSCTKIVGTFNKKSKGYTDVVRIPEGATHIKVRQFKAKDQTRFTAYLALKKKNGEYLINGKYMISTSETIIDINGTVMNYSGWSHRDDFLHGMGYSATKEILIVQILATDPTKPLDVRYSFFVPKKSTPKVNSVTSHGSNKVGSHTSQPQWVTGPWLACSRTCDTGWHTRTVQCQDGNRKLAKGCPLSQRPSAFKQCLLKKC

In the case of `O=C1NC(=O)C(CCC(=O)N2CCN(c3ccccc3Cl)CC2)(c2ccccc2)N1` (centres unmarked) [compound 20, 5-[3-[4-(2-chlorophenyl)piperazin-1-yl]-3-oxo-propyl]-5-phenyl-imidazolidine-2,4-dione], the IC50 in test [1] is 1.27 µM; in test [2], 1.28 µM; in test [3], more than 4 µM; in test [4], more than 20 µM.
Regarding `CC1(CCC(=O)N2CCN(c3ccccc3)CC2)NC(=O)NC1=O` (centres unmarked) [compound 1, 5-methyl-5-[3-oxo-3-(4-phenylpiperazin-1-yl)propyl]imidazolidine-2,4-dione], the half-inhibitory concentration (IC50) in test [1] is 0.73 µM; in test [3] it was more than 20 µM; in test [4], more than 20 µM.
For `Cc1ccccc1N1CCN(C(=O)CCC2(C)NC(=O)NC2=O)CC1` (centres unmarked) [compound 12, 5-methyl-5-[3-[4-(o-tolyl)piperazin-1-yl]-3-oxo-propyl]imidazolidine-2,4-dione], the half-maximal inhibitory concentration (IC50) is 1.16 µM in test [1], more than 4 µM in test [3] and more than 20 µM in test [4].
Turning to `CC(CC1(C)NC(=O)NC1=O)C(=O)N1CCN(c2cccc(Cl)c2)[C@@H](C)C1` (stereo partly drawn) [compound 214, 5-[3-[(3S)-4-(3-chlorophenyl)-3-methyl-piperazin-1-yl]-2-methyl-3-oxo-propyl]-5-methyl-imidazolidine-2,4-dione], the IC50 was 0.03 µM in test [1]; 0.061 µM in test [5]; more than 4 µM in test [3]; more than 3.51 µM in test [6]; 1.23 µM in test [7].
As for `Cc1ccccc1N1CCN(C(=O)CCC2(c3ccccc3)NC(=O)NC2=O)CC1` (centres unmarked) [compound 7, 5-[3-[4-(o-tolyl)piperazin-1-yl]-3-oxo-propyl]-5-phenyl-imidazolidine-2,4-dione], the IC50 in test [1] was 0.272 µM; in test [2], 0.272 µM; in test [3], more than 2.93 µM; in test [4] it was more than 20 µM.
Regarding `CC(CC1(C)NC(=O)NC1=O)C(=O)N1CCN(c2ccccc2)[C@@H](C)C1` (stereo partly drawn) [compound 217, 5-methyl-5-[2-methyl-3-[(3S)-3-methyl-4-phenyl-piperazin-1-yl]-3-oxo-propyl]imidazolidine-2,4-dione], the IC50 in test [1] is 0.049 µM; in test [5] it was 0.059 µM; in test [3], more than 4 µM; in test [6], more than 4 µM; in test [7], more than 4 µM.
Take `CC1(CCC(=O)N2CCN(c3ccc(Cl)cc3)CC2)NC(=O)NC1=O` (centres unmarked) [compound 2, 5-[3-[4-(4-chlorophenyl)piperazin-1-yl]-3-oxo-propyl]-5-methyl-imidazolidine-2,4-dione]: the concentration for half-maximal inhibition (IC50) in test [1] was 0.361 µM; in test [2] it was 0.274 µM; in test [3] it was more than 17.5 µM; in test [4], 2.37 µM.
With `Cc1ccc(Cl)cc1N1CCN(C(=O)CCC2(C3CC3)NC(=O)NC2=O)CC1` (centres unmarked) [compound 36, 5-[3-[4-(5-chloro-2-methyl-phenyl)piperazin-1-yl]-3-oxo-propyl]-5-cyclopropyl-imidazolidine-2,4-dione], the IC50 is 0.029 µM in test [1]; 0.034 µM in test [2]; 0.67 µM in test [3]; more than 20 µM in test [6]; more than 20 µM in test [7].
In the case of `O=C1NC(=O)C(CCC(=O)N2CCN(c3ccc4ccccc4c3)CC2)(c2ccccc2)N1` (centres unmarked) [compound 9, 5-[3-[4-(2-naphthyl)piperazin-1-yl]-3-oxo-propyl]-5-phenyl-imidazolidine-2,4-dione], the IC50 in test [1] stood at 0.331 µM; in test [2], 0.316 µM; in test [3], 2.5 µM; in test [4], 1.48 µM.
`O=C1NC(=O)C(CCC(=O)N2CCN(c3ccccc3)CC2)(c2ccccc2)N1` (centres unmarked) [compound 4, 5-[3-oxo-3-(4-phenylpiperazin-1-yl)propyl]-5-phenyl-imidazolidine-2,4-dione]: the IC50 was 0.066 µM in test [1], 0.114 µM in test [2], more than 5.5 µM in test [3] and 2.52 µM in test [4].
As to `C[C@H]1CN(C(=O)CC[C@@]2(C3CC3)NC(=O)NC2=O)CCN1c1cc(Cl)cc(Cl)c1` [compound 204, (5S)-5-cyclopropyl-5-[3-[(3S)-4-(3,5-dichlorophenyl)-3-methyl-piperazin-1-yl]-3-oxo-propyl]imidazolidine-2,4-dione], the IC50 in test [1] was 0.011 µM; in test [5] it was 0.016 µM; in test [3], 3.87 µM; in test [6], more than 12 µM; in test [7], more than 20 µM.
As for `Cc1cccc(N2CCN(C(=O)CCC3(C)NC(=O)NC3=O)CC2)c1C` (centres unmarked) [compound 11, 5-[3-[4-(2,3-dimethylphenyl)piperazin-1-yl]-3-oxo-propyl]-5-methyl-imidazolidine-2,4-dione], the IC50 in test [1] was 1.17 µM; in test [2], 0.988 µM; in test [3], more than 20 µM; in test [4], more than 20 µM.
As for `Cc1c(Cl)cccc1N1CCN(C(=O)CCC2(C)NC(=O)NC2=O)CC1` (centres unmarked) [compound 18, 5-[3-[4-(3-chloro-2-methyl-phenyl)piperazin-1-yl]-3-oxo-propyl]-5-methyl-imidazolidine-2,4-dione], the IC50 in test [1] is 0.93 µM; in test [2] it was 0.675 µM; in test [3], more than 4 µM; in test [4], more than 20 µM.
For the compound `CC(CC1(CN2CCOCC2)NC(=O)NC1=O)C(=O)N1CCN(c2cc(Cl)cc(Cl)c2)CC1` (centres unmarked) [compound 242, 5-[3-[4-(3,5-dichlorophenyl)piperazin-1-yl]-2-methyl-3-oxo-propyl]-5-(morpholinomethyl)imidazolidine-2,4-dione], the IC50 in test [1] was 0.057 µM; in test [5], 0.066 µM; in test [3] it was 2.52 µM; in test [6] it was more than 20 µM; in test [7], more than 20 µM.
With `CC(CC1(C)NC(=O)NC1=O)C(=O)N1CCN(c2cccc(F)c2)[C@@H](C)C1` (stereo partly drawn) [compound 215, 5-[3-[(3S)-4-(3-fluorophenyl)-3-methyl-piperazin-1-yl]-2-methyl-3-oxo-propyl]-5-methyl-imidazolidine-2,4-dione], the half-inhibitory concentration (IC50) was 0.018 µM in test [1]; 0.037 µM in test [5]; more than 12 µM in test [3]; more than 4 µM in test [6]; 2.6 µM in test [7].
As to `CC(CC1(CCS(C)(=O)=O)NC(=O)NC1=O)C(=O)N1CCN(c2cc(Cl)cc(Cl)c2)CC1` (centres unmarked) [Cpd 218, 5-[3-[4-(3,5-dichlorophenyl)piperazin-1-yl]-2-methyl-3-oxo-propyl]-5-(2-methylsulfonylethyl)imidazolidine-2,4-dione], the IC50 in test [1] came to 0.017 µM; in test [5], 0.02 µM; in test [3], 0.272 µM; in test [6] it was 2.22 µM; in test [7], 1.31 µM.
In the case of `Cc1ccc(Cl)cc1N1CCN(C(=O)CCC2(C)NC(=O)NC2=O)CC1` (centres unmarked) [compound 16, 5-[3-[4-(5-chloro-2-methyl-phenyl)piperazin-1-yl]-3-oxo-propyl]-5-methyl-imidazolidine-2,4-dione], the IC50 was 0.329 µM in test [1], 0.301 µM in test [2], 0.457 µM in test [3] and more than 20 µM in test [4].
On to `Cc1ccccc1N1CCN(C(=O)CC[C@@]2(c3ccccc3)NC(=O)NC2=O)CC1` [compound 27, (5S)-5-[3-[4-(o-tolyl)piperazin-1-yl]-3-oxo-propyl]-5-phenyl-imidazolidine-2,4-dione], for which the IC50 is 0.124 µM in test [1]; 0.09 µM in test [2]; more than 2 µM in test [3]; more than 20 µM in test [6]; more than 20 µM in test [7].
Regarding `Cc1c(Cl)cccc1N1CCN(C(=O)CCC2(c3ccccc3)NC(=O)NC2=O)CC1` (centres unmarked) [compound 21, 5-[3-[4-(3-chloro-2-methyl-phenyl)piperazin-1-yl]-3-oxo-propyl]-5-phenyl-imidazolidine-2,4-dione], the IC50 was 0.162 µM in test [1], 0.166 µM in test [2], 2.06 µM in test [3] and more than 20 µM in test [4].
`Cc1cc(Cl)ccc1N1CCN(C(=O)CCC2(c3ccccc3)NC(=O)NC2=O)CC1` (centres unmarked) [compound 13, 5-[3-[4-(4-chloro-2-methyl-phenyl)piperazin-1-yl]-3-oxo-propyl]-5-phenyl-imidazolidine-2,4-dione]: the IC50 in test [1] was 0.966 µM; in test [2], 0.836 µM; in test [3], 1.17 µM; in test [4], more than 20 µM.
Consider `Cc1cccc(N2CCN(C(=O)CCC3(c4ccccc4)NC(=O)NC3=O)CC2)c1C` (centres unmarked) [compound 8, 5-[3-[4-(2,3-dimethylphenyl)piperazin-1-yl]-3-oxo-propyl]-5-phenyl-imidazolidine-2,4-dione], for which the half-inhibitory concentration (IC50) in test [1] is 0.157 µM; in test [2] it was 0.142 µM; in test [3] it was more than 3.22 µM; in test [4], more than 20 µM.
Regarding `C[C@H]1CN(C(=O)CC[C@@]2(C3CC3)NC(=O)NC2=O)CCN1c1cccc(F)c1` [compound 203, (5S)-5-cyclopropyl-5-[3-[(3S)-4-(3-fluorophenyl)-3-methyl-piperazin-1-yl]-3-oxo-propyl]imidazolidine-2,4-dione], the IC50 in test [1] is 0.026 µM; in test [5], 0.046 µM; in test [3] it was more than 20 µM; in test [6], more than 20 µM; in test [7] it was more than 4 µM.
For `O=C1NC(=O)C(CCC(=O)N2CCN(c3cccc(Cl)c3)CC2)(c2ccccc2)N1` (centres unmarked) [compound 6, 5-[3-[4-(3-chlorophenyl)piperazin-1-yl]-3-oxo-propyl]-5-phenyl-imidazolidine-2,4-dione], the IC50 in test [1] is 0.107 µM; in test [3], 2.36 µM; in test [4] it was 2.15 µM.

Broadly, the IC50 is the point on the concentration scale where inhibition reaches its midpoint.
